Reference: patent publication US8367668B2, “Pyridazinone derivatives” (Merck Patent Gesellschaft mit Beschränkter Haftung, priority 2007, dated 2013)

Biological target: T1, Met kinase (Homo sapiens, UniProt P08581)
T1 construct: 6His (N); purchased Upstate 14-526; host or cells: Sf21 insect cells (S. frugiperda), baculovirus
Assay: Met kinase inhibition (enzyme assay), flashplate method
Type: biochemical
From the text: Measurement of Met Kinase Activity
According to the manufacturer's data (Met, active, upstate, catalogue No. 14-526), Met kinase is expressed for the purposes of protein production in insect cells (Sf21; S. frugiperda) and subsequent affinity-chromatographic purification as “N-terminal 6His-tagged” recombinant human protein in a baculovirus expression vector.
The kinase activity can be measured using various available measurement systems. In the scintillation proximity method (Sorg et al., J. of Biomolecular Screening, 2002, 7, 11-19), the flashplate method or the filter binding test, the radioactive phosphorylation of a protein or peptide as substrate is measured using radioactively labelled ATP (^32P-ATP, ^33P-ATP). In the case of the presence of an inhibitory compound, a reduced radioactive signal, or none at all, can be detected. Furthermore, homogeneous time-resolved fluorescence resonance energy transfer (HTR-FRET) and fluoroescence polarisation (FP) technologies can be used as assay methods (Sills et al., J. of Biomolecular Screening, 2002, 191-214).
Flashplate Method (Met Kinase)
The test plates used are 96-well Flashplate® microtitre plates from Perkin Elmer (Cat. No. SMP200). The components of the kinase reaction described below are pipetted into the assay plate. The Met kinase and the substrate poly Ala-Glu-Lys-Tyr, (pAGLT, 6:2:5:1), are incubated for 3 hrs at room temperature with radioactively labelled ^33P-ATP in the presence and absence of test substances in a total volume of 100 μl. The reaction is terminated using 150 μl of a 60 mM EDTA solution. After incubation for a further 30 min at room temperature, the supernatants are filtered off with suction, and the wells are washed three times with 200 μl of 0.9% NaCl solution each time. The measurement of the bound radioactivity is carried out by means of a scintillation measuring instrument (Topcount NXT, Perkin-Elmer).
The full value used is the inhibitor-free kinase reaction. This should be approximately in the range 6000-9000 cpm. The pharmacological zero value used is staurosporin in a final concentration of 0.1 mM. The inhibitory values (IC50) are determined using the RS1_MTS program.
Kinase reaction conditions per well: • 30 μl of assay buffer • 10 μl of substance to be tested in assay buffer with 10% of DMSO • 10 μl of ATP (final concentration 1 μM cold, 0.35 μCi of ^33P-ATP) • 50 μl of Met kinase/substrate mixture in assay buffer; • (10 ng of enzyme/well, 50 ng of pAGLT/well)
50 mM HEPES • 3 mM magnesium chloride • 3 μM sodium orthovanadate • 3 mM manganese(II) chloride • 1 mM dithiothreitol (DTT)
pH=7.5 (to be set using sodium hydroxide)
60 mM Titriplex III (EDTA)
Met kinase: Upstate, Cat. No. 14-526, Stock 1 μg/10 μl; spec. activity 954 U/mg;
Poly-Ala-Glu-Lys-Tyr, 6:2:5:1: Sigma Cat. No. P1152
Pharmacological Data Met Kinase Inhibitions (Enzyme Assay)

T1 sequence (P08581 974-1390 limits assumed): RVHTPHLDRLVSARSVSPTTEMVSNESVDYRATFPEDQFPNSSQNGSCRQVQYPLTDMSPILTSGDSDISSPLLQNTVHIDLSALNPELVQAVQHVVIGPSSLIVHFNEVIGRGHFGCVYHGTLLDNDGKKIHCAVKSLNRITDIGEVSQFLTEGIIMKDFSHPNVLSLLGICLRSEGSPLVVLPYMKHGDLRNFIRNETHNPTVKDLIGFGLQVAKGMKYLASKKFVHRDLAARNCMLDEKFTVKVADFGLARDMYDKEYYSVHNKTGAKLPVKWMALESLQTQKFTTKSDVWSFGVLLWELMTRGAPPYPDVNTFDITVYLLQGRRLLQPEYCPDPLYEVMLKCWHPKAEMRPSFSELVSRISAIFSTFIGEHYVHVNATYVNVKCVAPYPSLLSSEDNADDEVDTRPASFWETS

IC50, 10 to 1000 nM:
CCOC(=O)Nc1cccc(Cn2nc(-c3cccc(CO)c3)ccc2=O)c1 [A122, ethyl{3-[3-(3-hydroxymethylphenyl)-6-oxo-6H-pyridazin-1-ylmethyl]phenyl}carbamate]
CCOC(=O)Nc1cccc(Cn2nc(-c3ccc(CO)cc3)ccc2=O)c1 [A123, ethyl{3-[3-(4-hydroxymethylphenyl)-6-oxo-6H-pyridazin-1-ylmethyl]phenyl}carbamate]
CCOC(=O)Nc1cccc(Cn2nc(-c3ccc(C(=O)NCCCCN)cc3)ccc2=O)c1 [A129, ethyl(3-{3-[4-(4-aminobutylcarbamoyl)phenyl]-6-oxo-6H-pyridazin-1-ylmethyl}phenyl)carbamate]
CCOC(=O)Nc1cccc(Cn2nc(-c3ccc(C(=O)NCCCN)cc3)ccc2=O)c1 [A130]
CCOC(=O)Nc1cccc(Cn2nc(-c3ccc(CNC(=O)CCN)cc3)ccc2=O)c1 [A131]
CCOC(=O)Nc1cccc(Cn2nc(-c3ccc(C(=O)NCCN)cc3)ccc2=O)c1 [A132]
CCOC(=O)Nc1cccc(Cn2nc(-c3cccc(CNC(=O)CN)c3)ccc2=O)c1 [A133]
CCOC(=O)Nc1cccc(Cn2nc(-c3ccc(CNC(=O)CN)cc3)ccc2=O)c1 [A134]
CCOC(=O)Nc1cccc(Cn2nc(-c3cccc(CNC(=O)CCN)c3)ccc2=O)c1 [A135]
CCOC(=O)Nc1cccc(Cn2nc(-c3cccc(C(=O)NCCCCN)c3)ccc2=O)c1 [A136]
CCOC(=O)Nc1cccc(Cn2nc(-c3cccc(C(=O)NCCCN)c3)ccc2=O)c1 [A137]
CCOC(=O)Nc1cccc(Cn2nc(-c3cccc(C(=O)NCCN)c3)ccc2=O)c1 [A138]
CCOC(=O)Nc1cccc(Cn2nc(-c3cccc(CC(=O)NCCCCN)c3)ccc2=O)c1 [A139]
CCOC(=O)Nc1cccc(Cn2nc(-c3cccc(CC(=O)NCCCN)c3)ccc2=O)c1 [A140]
CCOC(=O)Nc1cccc(Cn2nc(-c3cccc(CC(=O)NCCN)c3)ccc2=O)c1 [A141]
CCOC(=O)Nc1cccc(Cn2nc(-c3ccc(CNC(=O)CCN4CCNCC4)cc3)ccc2=O)c1 [A142]
CCOC(=O)Nc1cccc(Cn2nc(-c3ccc(CNC(=O)CN4CCNCC4)cc3)ccc2=O)c1 [A143]
CCOC(=O)Nc1cccc(Cn2nc(-c3cccc(CNC(=O)CN4CCNCC4)c3)ccc2=O)c1 [A144]
CCOC(=O)Nc1cccc(Cn2nc(-c3cccc(CNC(=O)CCN4CCNCC4)c3)ccc2=O)c1 [A145]
CCOC(=O)Nc1cccc(Cn2nc(-c3ccc(CC(=O)NCCCCN)cc3)ccc2=O)c1 [A146]
CCOC(=O)Nc1cccc(Cn2nc(-c3ccc(CC(=O)NCCN)cc3)ccc2=O)c1 [A147]
CCOC(=O)Nc1cccc(Cn2nc(-c3ccc(CC(=O)NCCCN)cc3)ccc2=O)c1 [A148]
CCOC(=O)Nc1cccc(Cn2nc(-c3ccc(-c4noc(C)n4)cc3)ccc2=O)c1 [A163, ethyl(3-{3-[4-(5-methyl-1,2,4-oxadiazol-3-yl)phenyl]-6-oxo-6H-pyridazin-1-ylmethyl}phenyl)carbamate]
CCOC(=O)Nc1cccc(Cn2nc(-c3ccc(CN(Cc4ncc[nH]4)Cc4ncc[nH]4)cc3)ccc2=O)c1 [A171, ethyl{3-[3-(4-{[bis(1H-imidazol-2-ylmethyl)amino]methyl}-phenyl)-6-oxo-6H-pyridazin-1-ylmethyl]phenyl}carbamate]
CCOC(=O)Nc1cccc(Cn2nc(-c3ccc(-c4nnn[nH]4)cc3)ccc2=O)c1 [A172, ethyl(3-{6-oxo-3-[4-(1H-tetrazol-5-yl)phenyl]-6H-pyridazin-1-ylmethyl}phenyl)carbamate]
